Several values for one entry are separate records, joined by “and”; a condition that tells them apart may be missing. Equal entries are not always repeated.
How the values were obtained:
[1] = Plasma pharmacokinetics of RO4929097 alone and with bevacizumab; type: in vivo, human; conditions: for AUC24: plasma, geometric mean; for AUC24 Δ% / Cmax Δ%: day 15 with bevacizumab vs day 1 alone
[2] = system: patients with recurrent malignant gliomas
[3] = system: hepatic CYP450 enzyme system; conditions: cited from earlier work

CC(C)(C(=O)NCC(F)(F)C(F)(F)F)C(=O)N[C@@H]1C(=O)Nc2ccccc2-c2ccccc21 [RO4929097]
AUC24 ([1]; 5 mg oral, day 1, no concurrent bevacizumab): 1,215 ng●h/mL
AUC24 ([1]; 5 mg oral, day 15, concurrent bevacizumab): 1,212 ng●h/mL
AUC24 Δ% ([1]; 5 mg): −0.2%
AUC24 ([1]; 10 mg oral, day 1, no concurrent bevacizumab): 2,385 ± 606 ng●h/mL and 2,385 ng●h/mL
AUC24 Δ% ([1]; 10 mg): −1.5%
Cmax Δ% ([1]; 10 mg): 7.0%
AUC24 ([1]; 20 mg oral, day 1, no concurrent bevacizumab): 2,232 ± 781 ng●h/mL and 2,232 ng●h/mL
AUC24 ([1]; 20 mg oral, day 15, concurrent bevacizumab): 2,555 ng●h/mL
AUC24 Δ% ([1]; 20 mg): 14.5%
Cmax Δ% ([1]; 20 mg): 1.9%
Dose proportionality of mean Cmax ([1]; escalation of the dose from 5 to 20 mg): increased less than proportionately
Definitive maximum tolerated dose ([2]; in combination with bevacizumab, drug production halted): not identified
Recommended phase II dose ([2]; orally 3 days on/4 days off each week in combination with bevacizumab): 10 mg/kg

Bevacizumab: monoclonal antibody directed against vascular endothelial growth factor
Substrate or modulator of hepatic CYP450 enzyme system [3]: not a substrate or modulator
